# In publication PMC11858051, “PK/PD Analysis of High-Dose Daptomycin Use in the Treatment of Bone and Joint Infections: Data from a Real-World Setting” (Microorganisms, 2025):
# Key:
# [1] = human, in vivo
# Description: This is a retrospective, monocentric study, including adult patients with a suspected or documented diagnosis of Gram-positive BJI who received daptomycin and whose plasma concentrations were measured once the steady state was reached. The study was approved by the Institutional Review Board of University of Udine (Prot IRB: 266/2023). We included all patients who were hospitalized at our University Hospital from July 2022 to December 2023. Data were retrieved from the hospital’s electronic registry, selecting all TDM performed by the Clinical Pharmacology Institute of ASU FC in the time frame of interest and then identifying the analyses required by the orthopedic wards (see Figure 1).
# The peak and trough concentrations of daptomycin were determined through blood samples collected 30 min after the drug infusion and before dosing, respectively, on day 3 of therapy, once steady state was achieved. The drug clearance was estimated as apparent clearance, calculated as the […].
# Daptomycin concentrations were measured by a validated High-Performance Liquid Chromatography–Ultraviolet (HPLC-UV) method previously published, using Nexera-i 2040 LC, Shimadzu® (Shimadzu USA Manufacturing INC, Canby, OR, USA).
# [2] = C-reactive protein as surrogate efficacy marker during TDM; format: in vivo, human
# Description: Therefore, we attempted to correlate the targeted AUC0–24h with CRP levels measured after treatment. The CRP was obtained at the time of diagnosis and at the end of treatment or between stages in two-stage exchange arthroplasty.
# [3] = PK/PD target attainment at first TDM (eAUC0–24h and trough thresholds)
# Description: All patients performed daptomycin TDM according to the clinical practice, and its daily area under the concentration–time curve (eAUC0–24h; including eAUC24–48h in case of other day administration, meaning when the drug dose was given every 48 h instead of every 24 h as indicated in the SmPC as the standard dose) was estimated according to the following Equation (1) reported in the literature [18, 19], based on daptomycin trough and peak plasma concentrations: (1) AUC0–24 h = 0.5 × t^′×Cmax +∫t^′infinityCmax ×e^−kel×(t)dt− ∫24infinityCmin ×e^−kel×(t)dt
# For the analysis of the safety profile of daptomycin, we considered the main PK parameters expressing the overall exposure to the antibiotic and its property to be cleared, such as eAUC0–24h and the trough plasma concentrations, respectively. For the efficacy daptomycin PK/PD targets, we considered the main PK parameter indicating the daily exposure to daptomycin which is represented by the eAUC0–24h and we combined this with the pertinent PD parameter of interest of bacterial disease which is the Minimum Inhibitory Concentration (MIC) of the isolated pathogen.
# [4] = single patient with CPK 1000 U/L
smiles,measurement,setting,value
"CCCCCCCCCC(=O)N[C@@H](Cc1c[nH]c2ccccc12)C(=O)N[C@H](CC(N)=O)C(=O)N[C@@H](CC(=O)O)C(=O)N[C@@H]1C(=O)NCC(=O)N[C@@H](CCCN)C(=O)N[C@@H](CC(=O)O)C(=O)N[C@H](C)C(=O)N[C@@H](CC(=O)O)C(=O)NCC(=O)N[C@H](CO)C(=O)N[C@@H]([C@H](C)CC(=O)O)C(=O)N[C@@H](CC(=O)c2ccccc2N)C(=O)O[C@@H]1C [daptomycin, Daptomycin]","estimated AUC0–24h, maximum value",[1],2263 µg·h/mL
same,"estimated AUC0–24h, minimum value",[1],395.7 µg·h/mL
same,"exposure in females compared with males (eAUC0–24h, trough, peak, clearance, also dose-adjusted)",[1],Females are overexposed to daptomycin compared with males
same,"median dose-adjusted eAUC0–24h (eAUC0–24h/D), BMI > 25 kg/m^2",[1],112.6
same,"median dose-adjusted eAUC0–24h (eAUC0–24h/D), BMI ≤ 25 kg/m^2",[1],89.58
same,"median eAUC between 24 and 48 h after dosing (eAUC24–48h), other day administration",[1],339.8 µg·h/mL
same,"median eAUC within 24 h from dosing, other day administration",[1],1060 µg·h/mL
same,median estimated AUC0–24h,[1],996.3 µg·h/mL
same,median estimated drug clearance,[1],12.2 mL/min
same,median CRP during TDM,"[2]; 155 measurements, median",28.99 mg/L
same,median CRP when eAUC0–24h >939 mg·h/L,"[2]; aggressive eAUC0–24h group, Mann–Whitney p = 0.029 vs <939",17.47 mg/L
same,median CRP when eAUC0–24h < 939 mg·h/L,[2]; eAUC0–24h < 939 mg·h/L group,40.60 mg/L
same,cases with increase in absolute eosinophil count at follow-up,132 eosinophil count measurements at basal time and during TDM,108 cases
same,other adverse events,during therapy,No other adverse events were reported
same,eAUC0–24h of the patient with high CPK,[4],1051 µg·h/mL
same,plasma peak concentration of the patient with high CPK,[4],84.4 mg/L
same,plasma trough concentration of the patient with high CPK,[4],18.7 mg/L
same,plasma CPK concentration reached in the one patient with high CPK,"single patient, baseline 325 U/L",1000 U/L
same,patients not receiving adequate doses for the PK/PD efficacy and safety targets,[3]; dosing suggested in the SmPC,68.8%
same,patients underexposed (eAUC0–24h < 666 mg·h/L),"[3]; first TDM, 6 of 77 patients, doses according to SmPC",7.8%
same,patients with high eAUC0–24h to monitor (939–1174 mg·h/L) and trough <24.3 mg/L,"[3]; first TDM, 16 of 77 patients",20.8%
same,patients with eAUC0–24h > 1174 mg·h/L,"[3]; first TDM, 26 of 77 patients",33.8%
same,patients on target (eAUC0–24h 666–939 mg·h/L and trough < 24.3 mg/L),"[3]; first TDM, 27 of 77 patients",35.1%
